Test results: patent publication US20240287007A1, “N-(1,3,4-OXADIAZOL-2-YL)PHENYLCARBOXAMIDES AS HERBICIDES” (BAYER AKTIENGESELLSCHAFT, priority 2021, published 2024)

Columns and labels:
Type in all cases: in vivo
AVEFA (Avena fatua) = assay: Pre-emergence herbicidal effect against AVEFA; conditions: scored visually after 3 weeks
Excerpt: (§1) Seeds of monocotyledonous and dicotyledonous weed plants and crop plants are laid out in sandy loam soil in wood-fiber pots and covered with soil. The compounds of the invention, formulated in the form of wettable powders (WP) or as emulsion concentrates (EC), are then applied to the surface of the covering soil as aqueous suspension or emulsion at a water application rate equating to 600 to 800 l/ha with addition of 0.2% wetting agent. After the treatment, the pots are placed in a greenhouse and kept under good growth conditions for the trial plants. The damage to the test plants is scored visually after a test period of 3 weeks by comparison with untreated controls (herbicidal activity in percent (%): 100% activity=the plants have died, 0% activity=like control plants).

VIOTR (Viola tricolor) [1] = assay: Post-emergence herbicidal action against VIOTR; conditions: visual assessment after about 3 weeks
Protocol: (§2) Seeds of monocotyledonous and dicotyledonous weed and crop plants are laid out in sandy loam soil in wood-fiber pots, covered with soil and cultivated in a greenhouse under good growth conditions. 2 to 3 weeks after sowing, the trial plants are treated at the one-leaf stage. The compounds of the invention, formulated in the form of wettable powders (WP) or as emulsion concentrates (EC), are then sprayed onto the green parts of the plants as aqueous suspension or emulsion at a water application rate equating to 600 to 800 l/ha with addition of 0.2% wetting agent. After the test plants have been left to stand in the greenhouse under optimal growth conditions for about 3 weeks, the action of the preparations is assessed visually in comparison to untreated controls (herbicidal action in percent (%): 100% activity=the plants have died, 0% activity=like control plants).

LOLRI (Lolium rigidum) [2] = assay: Pre-emergence herbicidal effect against LOLRI; conditions: scored visually after 3 weeks
Excerpt: as §1

[3] = test system: AMARE (Amaranthus retroflexus); assay: Post-emergence herbicidal action against AMARE; conditions: visual assessment after about 3 weeks
Protocol: as §2

VIOTR (Viola tricolor) [4] = assay: Pre-emergence herbicidal effect against VIOTR; conditions: scored visually after 3 weeks
Excerpt: as §1

KCHSC (Kochia scoparia) [5] = assay: Post-emergence herbicidal action against KCHSC; conditions: visual assessment after about 3 weeks
Protocol: as §2

[6] = test system: AMARE (Amaranthus retroflexus); assay: Pre-emergence herbicidal effect against AMARE; conditions: scored visually after 3 weeks
Excerpt: as §1

[7] = test system: MATIN (Matricaria inodora); assay: Pre-emergence herbicidal effect against MATIN; conditions: scored visually after 3 weeks
Excerpt: as §1

[8] = test system: ABUTH (Abutylon threophrasti); assay: Pre-emergence herbicidal effect against ABUTH; conditions: 80 g/ha, scored visually after 3 weeks
Excerpt: as §1

SETVI (Setaria viridis) [9] = assay: Post-emergence herbicidal action against SETVI; conditions: visual assessment after about 3 weeks
Protocol: as §2

[10] = test system: POLCO (Polygonum convolvulus); assay: Post-emergence herbicidal action against POLCO; conditions: visual assessment after about 3 weeks
Protocol: as §2

VERPE (Veronica persica) [11] = assay: Pre-emergence herbicidal effect against VERPE; conditions: scored visually after 3 weeks
Excerpt: as §1

[12] = test system: POLCO (Polygonum convolvulus); assay: Pre-emergence herbicidal effect against POLCO; conditions: scored visually after 3 weeks
Excerpt: as §1

[13] = test system: ALOMY (Alopecurus myosuroides); assay: Pre-emergence herbicidal effect against ALOMY; conditions: scored visually after 3 weeks
Excerpt: as §1

VERPE (Veronica persica) [14] = assay: Post-emergence herbicidal action against VERPE; conditions: visual assessment after about 3 weeks
Protocol: as §2

[15] = test system: DIGSA (Digitaria sanguinalis); assay: Post-emergence herbicidal action against DIGSA; conditions: visual assessment after about 3 weeks
Protocol: as §2

[16] = test system: ABUTH (Abutylon threophrasti); assay: Post-emergence herbicidal action against ABUTH; conditions: visual assessment after about 3 weeks
Protocol: as §2

[17] = test system: DIGSA (Digitaria sanguinalis); assay: Pre-emergence herbicidal effect against DIGSA; conditions: scored visually after 3 weeks
Excerpt: as §1

SETVI (Setaria viridis) [18] = assay: Pre-emergence herbicidal effect against SETVI; conditions: scored visually after 3 weeks
Excerpt: as §1

[19] = test system: ALOMY (Alopecurus myosuroides); assay: Post-emergence herbicidal action against ALOMY; conditions: visual assessment after about 3 weeks
Protocol: as §2

[20] = test system: ECHCG (Echinochloa crus-galli); assay: Pre-emergence herbicidal effect against ECHCG; conditions: scored visually after 3 weeks
Excerpt: as §1

[21] = test system: PHBPU (Pharbitis purpurea); assay: Pre-emergence herbicidal effect against PHBPU; conditions: 80 g/ha, scored visually after 3 weeks
Excerpt: as §1

KCHSC (Kochia scoparia) [22] = assay: Pre-emergence herbicidal effect against KCHSC; conditions: scored visually after 3 weeks
Excerpt: as §1

[23] = test system: MATIN (Matricaria inodora); assay: Post-emergence herbicidal action against MATIN; conditions: visual assessment after about 3 weeks
Protocol: as §2

LOLRI (Lolium rigidum) [24] = assay: Post-emergence herbicidal action against LOLRI; conditions: visual assessment after about 3 weeks
Protocol: as §2

[25] = test system: PHBPU (Pharbitis purpurea); assay: Post-emergence herbicidal action against PHBPU; conditions: visual assessment after about 3 weeks
Protocol: as §2

What does the source list for `C[S+]([O-])c1c(OC(F)(F)F)ccc(C(=O)Nc2nnco2)c1Cl` (racemic) [Example 1-32, 2-chloro-3-(methylsulfinyl)-N-(1,3,4-oxadiazol-2-yl)-4-(trifluoromethoxy)benzamide]?
Pre-emergence effect at 20 g/ha against AVEFA in % (AVEFA (Avena fatua); 20 g/ha): 80%; Pre-emergence effect at 80 g/ha against A VEFA in % (AVEFA (Avena fatua); 80 g/ha): 100%; Post-emergence effect at 20 g/ha against VIOTR in % (VIOTR (Viola tricolor) [1]; 20 g/ha): 100%; Post-emergence effect at 80 g/ha against VIOTR in % (VIOTR (Viola tricolor) [1]; 80 g/ha): 100%; Pre-emergence effect at 20 g/ha against LOLRI in % (LOLRI (Lolium rigidum) [2]; 20 g/ha): 90%; Pre-emergence effect at 80 g/ha against LOLRI in % (LOLRI (Lolium rigidum) [2]; 80 g/ha): 90%; Post-emergence effect at 20 g/ha against AMARE in % ([3]; 20 g/ha): 100%; Post-emergence effect at 80 g/ha against AMARE in % ([3]; 80 g/ha): 100%; Pre-emergence effect at 20 g/ha against VIOTR in % (VIOTR (Viola tricolor) [4]; 20 g/ha): 100%; Pre-emergence effect at 80 g/ha against VIOTR in % (VIOTR (Viola tricolor) [4]; 80 g/ha): 100%; Post-emergence effect at 20 g/ha against KCHSC in % (KCHSC (Kochia scoparia) [5]; 20 g/ha): 100%; Post-emergence effect at 80 g/ha against KCHSC in % (KCHSC (Kochia scoparia) [5]; 80 g/ha): 100%; Pre-emergence effect at 20 g/ha against AMARE in % ([6]; 20 g/ha): 100%; Pre-emergence effect at 80 g/ha against AMARE in % ([6]; 80 g/ha): 100%; Pre-emergence effect at 20 g/ha against MATIN in % ([7]; 20 g/ha): 100%; Pre-emergence effect at 80 g/ha against MATIN in % ([7]; 80 g/ha): 100%; Pre-emergence effect at 80 g/ha against ABUTH in % [8]: 100%; Post-emergence effect at 20 g/ha against SETVI in % (SETVI (Setaria viridis) [9]; 20 g/ha): 100%; Post-emergence effect at 80 g/ha against SETVI in % (SETVI (Setaria viridis) [9]; 80 g/ha): 100%; Post-emergence effect at 20 g/ha against POLCO in % ([10]; 20 g/ha): 90%; Post-emergence effect at 80 g/ha against POLCO in % ([10]; 80 g/ha): 100%; Pre-emergence effect at 20 g/ha against VERPE in % (VERPE (Veronica persica) [11]; 20 g/ha): 80%; Pre-emergence effect at 80 g/ha against VERPE in % (VERPE (Veronica persica) [11]; 80 g/ha): 90%; Pre-emergence effect at 20 g/ha against POLCO in % ([12]; 20 g/ha): 90%; Pre-emergence effect at 80 g/ha against POLCO in % ([12]; 80 g/ha): 90%; Pre-emergence effect at 20 g/ha against ALOMY in % ([13]; 20 g/ha): 80%; Pre-emergence effect at 80 g/ha against ALOMY in % ([13]; 80 g/ha): 100%; Post-emergence effect at 20 g/ha against VERPE in % (VERPE (Veronica persica) [14]; 20 g/ha): 90%; Post-emergence effect at 80 g/ha against VERPE in % (VERPE (Veronica persica) [14]; 80 g/ha): 100%; Post-emergence effect at 20 g/ha against DIGSA in % ([15]; 20 g/ha): 90%; Post-emergence effect at 80 g/ha against DIGSA in % ([15]; 80 g/ha): 90%; Post-emergence effect at 20 g/ha against ABUTH in % ([16]; 20 g/ha): 90%; Post-emergence effect at 80 g/ha against ABUTH in % ([16]; 80 g/ha): 100%; Pre-emergence effect at 20 g/ha against DIGSA in % ([17]; 20 g/ha): 100%; Pre-emergence effect at 80 g/ha against DIGSA in % ([17]; 80 g/ha): 100%; Pre-emergence effect at 20 g/ha against SETVI in % (SETVI (Setaria viridis) [18]; 20 g/ha): 90%; Pre-emergence effect at 80 g/ha against SETVI in % (SETVI (Setaria viridis) [18]; 80 g/ha): 100%; Post-emergence effect at 20 g/ha against ALOMY in % ([19]; 20 g/ha): 80%; Post-emergence effect at 80 g/ha against ALOMY in % ([19]; 80 g/ha): 90%; Pre-emergence effect at 20 g/ha against ECHCG in % ([20]; 20 g/ha): 100%; Pre-emergence effect at 80 g/ha against ECHCG in % ([20]; 80 g/ha): 100%; Pre-emergence effect at 80 g/ha against PHBPU in % [21]: 90%; Pre-emergence effect at 20 g/ha against KCHSC in % (KCHSC (Kochia scoparia) [22]; 20 g/ha): 100%; Pre-emergence effect at 80 g/ha against KCHSC in % (KCHSC (Kochia scoparia) [22]; 80 g/ha): 100%; Post-emergence effect at 20 g/ha against MATIN in % ([23]; 20 g/ha): 100%; Post-emergence effect at 80 g/ha against MATIN in % ([23]; 80 g/ha): 100%; Post-emergence effect at 80 g/ha against LOLRI in % (LOLRI (Lolium rigidum) [24]): 90%; Post-emergence effect at 20 g/ha against PHBPU in % ([25]; 20 g/ha): 90%; Post-emergence effect at 80 g/ha against PHBPU in % ([25]; 80 g/ha): 100%
